This passage reports IC50, Ratio IC50 and Selectivity ratio results from ChEMBL document CHEMBL1152511, “Structural basis for alpha-conotoxin potency and selectivity” (Bioorg Med Chem, 2009).

Experiment [1] has as its target Neuronal acetylcholine receptor; alpha3/beta2 (Homo sapiens, UniProt P17787+P32297). Briefly: Inhibition of alpha3beta2 nAChR. The format is protein-complex assay.
Experiment [2] is described as follows: Selectivity ratio of IC50 for alpha6beta2 nAChR to IC50 for alpha3beta2 nAChR.
A short description of experiment [3]: Selectivity for alpha3beta2 nAChR over alpha6beta2 nAChR.
Experiment [4] concerns the target Neuronal acetylcholine receptor; alpha6/beta2 (Homo sapiens, UniProt P17787+Q15825). The experiment is described as follows: Inhibition of alpha6beta2 nAChR. The format is protein-complex assay.

Each structure is given as a SMILES string. pIC50: −log10 of the molar value. Residues, ends and D or L forms follow the SMILES beside them.

Sequence of Neuronal acetylcholine receptor; alpha3/beta2 (P17787 whole entry): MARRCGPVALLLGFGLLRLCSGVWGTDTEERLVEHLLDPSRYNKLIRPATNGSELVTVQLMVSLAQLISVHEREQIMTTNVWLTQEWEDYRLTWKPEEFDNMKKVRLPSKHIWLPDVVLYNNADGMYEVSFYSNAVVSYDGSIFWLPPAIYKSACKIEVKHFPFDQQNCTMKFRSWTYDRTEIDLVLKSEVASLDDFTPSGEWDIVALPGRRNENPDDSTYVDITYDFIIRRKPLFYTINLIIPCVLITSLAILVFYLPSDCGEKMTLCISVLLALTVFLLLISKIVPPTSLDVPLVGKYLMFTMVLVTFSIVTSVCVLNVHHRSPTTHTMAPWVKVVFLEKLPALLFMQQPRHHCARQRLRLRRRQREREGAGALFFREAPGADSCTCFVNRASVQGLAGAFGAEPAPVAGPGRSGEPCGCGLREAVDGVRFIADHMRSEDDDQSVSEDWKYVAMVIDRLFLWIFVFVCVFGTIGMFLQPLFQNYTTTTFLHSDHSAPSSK
Sequence of Neuronal acetylcholine receptor; alpha3/beta2 (P32297 whole entry): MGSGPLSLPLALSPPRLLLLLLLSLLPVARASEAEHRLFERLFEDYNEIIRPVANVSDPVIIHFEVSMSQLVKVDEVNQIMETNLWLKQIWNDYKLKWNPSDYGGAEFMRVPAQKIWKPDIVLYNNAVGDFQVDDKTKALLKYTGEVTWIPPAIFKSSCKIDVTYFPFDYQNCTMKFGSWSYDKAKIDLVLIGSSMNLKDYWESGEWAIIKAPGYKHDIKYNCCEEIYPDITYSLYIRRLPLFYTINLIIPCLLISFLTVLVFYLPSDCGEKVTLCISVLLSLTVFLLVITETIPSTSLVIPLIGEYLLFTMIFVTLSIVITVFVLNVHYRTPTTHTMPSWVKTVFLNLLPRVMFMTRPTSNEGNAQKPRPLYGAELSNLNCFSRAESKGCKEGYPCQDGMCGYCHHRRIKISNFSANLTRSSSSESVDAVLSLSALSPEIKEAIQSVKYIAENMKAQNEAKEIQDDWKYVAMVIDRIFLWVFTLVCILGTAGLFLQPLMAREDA
Sequence of Neuronal acetylcholine receptor; alpha6/beta2 (P17787 whole entry): as the sequence (P17787 whole entry) above
Sequence of Neuronal acetylcholine receptor; alpha6/beta2 (Q15825 whole entry): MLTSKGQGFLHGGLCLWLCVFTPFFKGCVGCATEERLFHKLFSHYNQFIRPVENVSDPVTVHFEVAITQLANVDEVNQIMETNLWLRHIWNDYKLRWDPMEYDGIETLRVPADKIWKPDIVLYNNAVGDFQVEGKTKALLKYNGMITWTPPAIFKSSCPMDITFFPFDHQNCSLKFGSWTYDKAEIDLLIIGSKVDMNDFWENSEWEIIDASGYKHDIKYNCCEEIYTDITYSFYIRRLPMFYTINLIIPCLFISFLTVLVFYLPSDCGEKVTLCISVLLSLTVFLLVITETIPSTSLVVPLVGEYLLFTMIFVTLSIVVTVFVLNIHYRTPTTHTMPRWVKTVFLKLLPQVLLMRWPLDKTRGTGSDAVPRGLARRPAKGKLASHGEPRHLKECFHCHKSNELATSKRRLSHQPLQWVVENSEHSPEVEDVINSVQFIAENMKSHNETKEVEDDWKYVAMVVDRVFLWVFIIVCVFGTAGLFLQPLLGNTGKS

In experiment [1], `CC[C@H](C)[C@H](NC(=O)[C@H](CS)NC(=O)[C@@H]1CCCN1C(=O)[C@@H]1CCCN1C(=O)[C@H](CCCNC(=N)N)NC(=O)[C@H](CO)NC(=O)[C@H](CS)NC(=O)[C@H](CS)NC(=O)CN)C(=O)N[C@@H](C)C(=O)N[C@@H](CC(N)=O)C(=O)N[C@@H](CC(N)=O)C(=O)N1CCC[C@H]1C(=O)N[C@@H](CC(=O)O)C(=O)N[C@@H](CC(C)C)C(=O)N[C@@H](CS)C(=O)O` had a pIC50 of 8.46.

As for `CC[C@H](C)[C@H](NC(=O)[C@H](Cc1cnc[nH]1)NC(=O)[C@@H]1CCCN1C(=O)[C@H](CC(N)=O)NC(=O)[C@H](CC(N)=O)NC(=O)[C@@H](NC(=O)[C@H](CC(N)=O)NC(=O)[C@H](CS)NC(=O)[C@H](C)NC(=O)[C@@H]1CCCN1C(=O)[C@H](Cc1cnc[nH]1)NC(=O)[C@H](CO)NC(=O)[C@H](CS)NC(=O)[C@H](CS)NC(=O)CN)C(C)C)C(=O)N[C@@H](CS)C(=O)NCC(=O)O` (H-GCCSHPACNVNNPHICG-OH), the Ratio IC50 in experiment [2] is 0.0547. For the same compound, the figures for the pIC50 in experiment [1] and in experiment [4] were 7.96 and 6.70, respectively. Further, in experiment [3], the Selectivity ratio stood at 20.

In the case of `CC(C)C[C@H](NC(=O)[C@@H](NC(=O)[C@H](C)NC(=O)[C@H](CS)NC(=O)[C@@H]1CCCN1C(=O)[C@@H]1CCCN1C(=O)[C@@H](NC(=O)[C@H](CO)NC(=O)[C@H](CS)NC(=O)[C@H](CS)NC(=O)CN)[C@@H](C)O)C(C)C)C(=O)N[C@@H](Cc1ccc(O)cc1)C(=O)N[C@@H](CS)C(=O)O` (H-GCCSTPPCAVLYC-OH), the Ratio IC50 in experiment [2] was found to be 22. Further, the values for the pIC50 in experiment [1] and in experiment [4] were 8.24 and 9.59, respectively. Further, the Selectivity ratio in experiment [3] came out at 20.

As usually defined, the pIC50 is −log10 of the IC50, conventionally taken in molar units. Read a low pIC50 as a large IC50.
